In paper PMC12470104, “The Achilles Heel of Protein Biochemistry: Insolubility of Recombinant Proteins—A Case Study About Producing a Rice Enzyme” (International Journal of Molecular Sciences, 2025):

Test system: T1, OsAPSE
T1 construct: GH27 42-387, ricin-B-like 498-563, GH-all-beta 563-649; catalytic D226, D282
Assay: discontinuous pNP release assay, A405; Hanes-Woolf and Eadie-Hofstee
Assay type: biochemical, Oryza sativa subsp. japonica
Details: 50 mM Tris-HCl pH 8, 25 °C; 50 µg/mL enzyme; protein refolded from inclusion bodies (authors suspect suboptimal folding); 1-20 mM substrate, Km extrapolated above tested range

O=[N+]([O-])c1ccc(O[C@H]2O[C@H](CO)[C@H](O)[C@H](O)[C@H]2O)cc1 [pNP-α-D-Galp]
Km: 44 mM
